Assay results reported in US20240261259A1 (priority 2021, published 2024).

Test system: FLT3 mutant positive AML
Experiment: Clinical response to midostaurin plus chemotherapy, Princess Margaret cohort of 54 AML patients
Type: in vivo, human
[1] = midostaurin plus chemotherapy, 54 FLT3 mutant-positive AML patients

SMILES: CO[C@@H]1[C@H](N(C)C(=O)c2ccccc2)C[C@H]2O[C@]1(C)n1c3ccccc3c3c4c(c5c6ccccc6n2c5c31)C(=O)NC4 [midostaurin, N-[(9S,I0R,I IR,I3R)-2,3,I0,I I,I2,I3-hexahydro-I0-methoxy-9-methyl-I-oxo-9,I3-epoxy-IH, 9H-diindolo[1,2,3-gh: 3′,2′,I′-Im]pyrrolo[3,4-j][I, 7]benzodiazonin-I I-yl]-N-methylbenzamide]
- Responses to midostaurin, average [1]: 84 weeks
- Responses to midostaurin, range [1]: 0-513 weeks
- patients refractory or relapsed at the time of carrying out the analysis (of 54 AML patients treated with midostaurin plus chemotherapy): 25 patients
